US4311689A, “Method and container for production of diagnostic scanning” (priority 1978, dated 1982)
Structures can show the parent of a compound that is named as a salt.

Assay: Bio-distribution in rats 2 hours post injection
Format: in vivo
Procedure: The complex was injected into rats which were sacrificed 2 hours post injection.

Row | activity excreted in the urine (in words) | liver retention / uptake | Structure (SMILES) | activity retained in the kidneys | activity excreted in the urine | also measured
1 | the bulk of the injected activity | about 5% | O=C[C@H](O)[C@@H](O)[C@H](O)[C@H](O)CO [d-glucose] | ~29% | – | –
2 | – | – | O=C(O)CC(O)(CC(=O)O)C(=O)O [citric acid] | about 11% | over 70% | concentration in any other organ: no significant concentration
3 | small amount | about 37% | Sc1cccc2cccnc12 [8-mercapto-quinolinehydrochloride] | – | – | blood labelling: small amount; muscle uptake: ~15%; small intestine uptake: ~20%
4 | – | – | O=C(O)CN(CCN(CC(=O)O)CC(=O)O)CCN(CC(=O)O)CC(=O)O | – | greater than 95% | –
5 | most of the remainder | – | O=P(O)(O)CP(=O)(O)O [methylenediphosphonic acid] | – | – | bone uptake: about 37%
